PMC6131501, “Urate transporter inhibitor lesinurad is a selective peroxisome proliferator-activated receptor gamma modulator (sPPARγM) in vitro” (Scientific Reports, 2018)
Where “and” joins values, the source holds several entries; their conditions need not be identical. Identical values can stand only once.

Legend:
CYP3A4 = test system: CYP3A4; design: method as in PMID 28067999; conditions: cited from earlier work
[1] = molecular target: T1, recombinant PPARγ ligand binding domain (Homo sapiens, UniProt P37231); experiment: Isothermal titration calorimetry (ITC)
T1 sequence (P37231 238-503 limits assumed): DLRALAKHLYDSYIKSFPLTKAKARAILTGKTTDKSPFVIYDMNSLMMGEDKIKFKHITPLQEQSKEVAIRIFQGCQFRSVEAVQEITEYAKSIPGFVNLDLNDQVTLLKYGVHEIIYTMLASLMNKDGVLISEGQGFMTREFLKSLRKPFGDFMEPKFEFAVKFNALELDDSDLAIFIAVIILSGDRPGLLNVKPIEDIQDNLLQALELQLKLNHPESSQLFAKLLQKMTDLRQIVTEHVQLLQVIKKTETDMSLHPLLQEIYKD
Protocol: (§1) To confirm direct modulation of PPARγ by lesinurad, we analyzed their interaction by isothermal titration calorimetry (ITC). Due to limited solubility of lesinurad, recombinant PPARγ ligand binding domain (LBD) protein was (reversely) titrated to the drug.
Isothermal titration calorimetry (ITC) was conducted on an Affinity ITC (TA Instruments Affinity ITC). Recombinant PPARγ ligand binding domain protein (138 μM) and lesinurad (40 μM) were each dissolved in a HEPES buffer (25 mM; adjusted to pH 7.5 with KOH; further containing 150 mM KF, 10% glycerol (w/w), 1% DMSO (v/v) and 5 mM DTT). The ITC instrument was adjusted to a temperature of 25 °C and the stirring rate was set at 75 rpm. 190 μL lesinurad solution were filled into the reaction cell and PPARγ ligand binding domain solution was titrated in 41 injections. […] An interval of 200 s was maintained between individual injections. The heats of dilution resulting from titrating PPARγ ligand binding domain protein solution into the buffer solution were recorded in an additional ITC run and subtracted from the raw ITC data obtained for lesinurad.
ITC raw data was analyzed using NanoAnalyze software package (version 3.7.5). An independent binding model was used to fit the reaction enthalpy (ΔH), binding affinity constant (Kd), and stoichiometry (n). Free energy change (ΔG) was calculated from the equation ΔG = −RT ln K and the entropy (ΔS) was calculated from ΔG = ΔH−TΔS.

PPARγ LBD / SRC-1 = PPARγ LBD / SRC-1 (Homo sapiens, UniProt P37231); experiment: PPARγ coactivator recruitment assay (time-resolved FRET), SRC-1; assay type: biochemical
Sequence of PPARγ LBD / SRC-1 (Q15788 676-700 partner limits assumed, one chain of several): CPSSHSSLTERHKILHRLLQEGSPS
From the text: We analyzed the ability of lesinurad to induce recruitment of the coactivators steroid receptor coactivator 1 (SRC-1, also known as nuclear receptor coactivator 1 (NCOA1)) and cyclic AMP responsive element binding (CREB) protein (CBP) to the PPARγ ligand binding domain in a time-resolved FRET assay with labeled PPARγ-LBD and coactivator proteins (Fig. 5D).
Recruitment of coactivator-derived peptides to the PPARγ LBD was studied by homogeneous time-resolved fluorescence resonance energy transfer (HT-FRET or HTRF). Terbium cryptate as streptavidin conjugate (cisbio assays, France) was used as FRET donor. Peptides derived from coactivators SRC-1 [biotin-[…]] or CBP [biotin-[…]] encompassing the coactivator consensus motif LxxLL and N-terminal biotin for stable coupling to streptavidin were purchased (Eurogentec GmbH, Germany). […] FI520 nm was divided by FI620 nm and multiplied with 10,000 giving a dimensionless HTRF signal. Coactivator recruitment by the PPARγ LBD brings FRET donor and acceptor into close proximity resulting in a gain in FRET signal as signal for binding.

[2] = Aqueous solubility (noted for ITC); assay type: physicochemical
From the text: as §1

[3] = test system: PPARγ-regulated genes in 3T3-L1 adipocytes; experiment: PPARγ target gene quantification in 3T3-L1 adipocytes (qPCR); assay type: cell-based, murine; conditions: 3T3-L1 adipocytes, rosiglitazone 2 μM, 1 30 μM, mean ± SEM, n = 3
Protocol: 3T3-L1 cells were cultured and differentiated as described above. Cells were then lysed using TRIzol reagent (Ambion, Life Technologies, Carlsbad, CA, USA), and mRNA was isolated following the manufacturer’s protocol. DNA contaminations were digested using DNase (DNase I, RNase-free kit; Thermo Scientific, Waltham, MA, USA) and mRNA concentrations were measured with a NanoDrop2000 spectrophotometer (Thermo Scientific, Waltham, MA, USA). Subsequently, reverse transcription was performed using the high capacity RNA-to-cDNA kit (Applied Biosystems, Foster City, CA, USA). Quantitative real-time PCR was performed using specific primers for CD36, […] and CPT1A with a StepOnePlus real-time PCR system (Applied Biosystems, Foster City, CA, USA). Non-POU domain containing octamer binding protein (NonO) was used as reference gene for 3T3-L1. All samples were measured in duplicate and were analyzed using the ΔΔCt method. The following PCR primers were used: Adiponectin: 5′-TGACGACACCAAAAGGGCTC-3′ (fwd) and 5′-CACAAGTTCCCTTGGGTGGA-3′ (rev); CD36: 5′-TGCTGGAGCTGTTATTGGTG-3′ (fwd) and 5′-CATGAGAATGCCTCCAAACA-3′ (rev); FABP4: 5′-AGAAGTGGGAGTGGGCTTTG-3′ (fwd) and 5′-ACTCTCTGACCGGATGGTGA-3′ (rev); GLUT4: 5′-TGAAGAACGGATAGGGAGCAG-3′ (fwd) and 5′-GAAGTGCAAAGGGTGAGTGAG-3′ (rev); NonO: 5′-TGCTCCTGTGCCACCTGGTACTC-3′ (fwd) and 5′-CCGGAGCTGGACGGTTGAATGC-3′ (rev).
Results (expressed as mean ± SEM % relative mRNA expression; n = 3): Adiponectin: untreated (0.1% DMSO): 124 ± 45%; […];

With `O=C(O)CSc1nnc(Br)n1-c1ccc(C2CC2)c2ccccc12` [lesinurad] as the compound, how does the CYP3A4 induction (CYP3A4) read?
Its CYP3A4 induction is “CYP3A4 inducer”.

What about the Kd ([1]; 25 °C, PPARγ LBD titrated to drug, independent binding model) of the same compound?
The Kd was 1300 nM.

What about the ΔS ([1]; 25 °C, calculated from ΔG = ΔH−TΔS) of the same compound?
The ΔS was 27 J/mol·K and 26,99 J/mol·K.

And the “n (stoichiometry)” value ([1]; value printed in the picture of Fig. 4)?
The value was 0,987.

What about the EC50 (PPARγ LBD / SRC-1; HTRF, PPARγ LBD, 2 h at RT) of the same compound?
The EC50 was 12 ± 2 µM.

What about the SRC-1 recruitment efficacy (PPARγ LBD / SRC-1; compared to 1 μM rosiglitazone) of the same compound?
The SRC-1 recruitment efficacy was 91 ± 5%.

What about the aqueous solubility [2] of the same compound?
The aqueous solubility was “limited aqueous solubility”.

And the “CD36 relative mRNA expression” value ([3]; untreated 122 ± 43%)?
Its value is 205 ± 76%.

What about the “Adiponectin relative mRNA expression” value ([3]; untreated 124 ± 45%) of the same compound?
Its value is 175 ± 63%.

And the “GLUT4 relative mRNA expression” value ([3]; untreated 145 ± 61%)?
The value was 128 ± 43%.

And the “FABP4 relative mRNA expression” value ([3]; untreated 161 ± 72%)?
The value was 151 ± 58%.
